The subject of the assay is HIV. Kind of assay: HOS assay (HOS-Luc HIV-1 LTR-luciferase reporter antiviral assay). The format is cell-based. The conditions noted are these: Human immunodeficiency virus 1, 96 h; HOS-Luc cells (HOS-CD4.CCR5 with HIV-1 LTR-luciferase reporter), four-day incubation with virus, luciferase readout. The method, then:
HOS-Luc cells were created by introducing an HIV-1 LTR-luciferase reporter into HOS-CD4.CCR5 (NIH AIDS Research and Reference Reagents Program, cat. #3318). The cells were propagated in DMEM complete medium. Cells were split 1:20 by standard trypsinization when confluency reached 80% (roughly every 2 to 3 days).
Black-walled 96-well tissue culture plates were seeded with HOS-Luc at 6×10^3 cells per well in 50 μL DMEM containing 2% FBS and placed in a humidified incubator at 37° C., 5% CO2 overnight. The following day, test compounds were serially diluted in 4-fold increments at 2× the final concentration in DMEM+2% FBS+0.2% DMSO. Diluted compound (50 μL) was transferred to the HOS-Luc cells and the plates were placed in a humidified incubator at 37° C., 5% CO2 for 1 hr. An additional 60 μL of 2× compound was transferred to a clear-walled 96-well tissue culture plate and 60 μL of virus (diluted 1:50 in tissue culture media) was added to each well and thoroughly mixed. The virus input was previously determined by titrating the virus under assay conditions without compound and selecting a dilution that gives a response in the linear range of the curve and a signal to background of at least 30. The HIV/compound mixture (100 μL) was transferred to the black-walled plates containing 100 μL of cells/compound. The plates were placed in a humidified incubator at 37° C., 5% CO2 for four days. Following the four-day incubation, 150 μL of supernatant was removed and 50 μL of reconstituted Luclite (Promega) was added to each well. For cytotoxicity assessment, 50 μL of reconstituted CellTiter-GLo (Promega) was added to each well. Each plate was topsealed and read in a Topcount (Packard) luminometer at 1 s/well.
Raw data from the HOS-Luc assay were expressed as Relative Light Units (RLU) and normalized according to the following formula: (RLU at drug [ ]/RLU no drug)*100=% control
The potency of test compounds are reported as IC50 values derived from the four parameter Hill equation, defined as: y=Vmax*(1−(x^n/(K^n+x^n)))+Y2 Where:
y=normalized response data
Vmax=upper bound of response
Y2=lower bound or baseline of response
Background: A reporter such as luciferase makes a cellular process visible.

Usually IC50 stands for the midpoint of a concentration-inhibition curve. Higher therefore signals lower potency.

Compound `Cc1nc2ccccc2n1[C@H]1C[C@H]2CC[C@@H](C1)N2CCC(CNS(=O)(=O)N1CCOCC1)c1ccccc1` (stereo partly drawn) [Example 12, N-{4-[(1R,5S)-3-(2-methyl-1H-benzimidazol-1-yl)-8-azabicyclo[3.2.1]oct-8-yl]-2-phenylbutyl}-4-mopholinesulfonamide] came in with an IC50 of 0.01 to 0.1 µM.
